These results are taken from patent publication US12122802B2, “D-allose crystal and production method thereof” (MATSUTANI CHEMICAL INDUSTRY CO., LTD., priority 2019, dated 2024).

What all share (assay type): physicochemical
Data set [1] is described as follows: particle size distribution by laser diffraction (Mastersizer 3000, dry dispersion unit Aero S). The settings on record: average of 5 measurements, dispersion pressure 1.0 bar. An excerpt: The melting point (Tm) in the DSC refers to the melting start temperature of the endothermic peak obtained by DSC measurement (temperature at the extrapolated intersection of the base line and the maximum slope line of the endothermic peak), and the melting enthalpy (ΔH) refers to the area of the endothermic peak (ASTM D3418-15, Standard Test Method for Transition Temperatures and Enthalpies of Fusion and Crystallization of Polymers by Differential Scanning calorimetry). Further, in the present invention, the average particle size refers to the volume-based average particle size d[4,3], which is usually measured with a laser diffraction particle size distribution analyzer.
Next, the particle size distribution of the anhydrous D-allose crystals of the present invention was examined. Specifically, the anhydrous D-allose crystals obtained in the previous Test Nos. 1 to 5, 7 to 10 and 12, were subjected to measurement of particle size distribution under the measurement conditions shown in Table 7 using “Mastersizer 3000” and a “dry dispersion unit Aero S” manufactured by Malvern Instruments. More specifically, the measurement was repeated 5 times, and the average value of the 5 times measurements was used. No great variability was seen among the 5 times measurement values. The particle size distribution was expressed on a volume basis, and the volume-based average particle size d[4,3] and standard deviation σ were recorded. Also, the coefficient of variation CV=σ/d[4,3] was calculated in order to relatively evaluate the variation in the particle size distribution.

Data set [2] is described as follows: repose angle measured by powder tester PT-E (fluidity of anhydrous D-allose crystals). The settings on record: anhydrous crystals of Test Nos. 1 to 12, hydrous crystals dried with evaporator (30° C., 20 hPa (abs), about 2 hours), average of three directions. How it is done:
The fluidity of the anhydrous D-allose crystals obtained by drying the hydrous crystals obtained in each of Tests Nos. 1 to 12 with an evaporator (30° C., 20 hPa (abs), about 2 hours) as described above was evaluated by the repose angle measured by a powder tester PT-E (manufactured by Hosokawa Micron Corporation). Specifically, a sample was dropped and deposited on a disk, and the inclination angle was measured from three directions to obtain an average value. From the average value, the degree of fluidity was evaluated according to Table 1 in the Japanese Pharmacopoeia, 17th edition, Reference Information G2 physical property-related “Powder Fluidity” (same as the so-called Carr's fluidity index table, shown as Table 4).
In order to measure the water content in the crystals obtained by each of the drying methods, drying under reduced pressure under conditions at 70° C. for 18 hours was performed to calculate the water content in the crystals from the weight loss through the drying under reduced pressure. The repose angle was measured by the method described above to determine the degree of fluidity. The yield rate was calculated by the following expression. Yield rate (%)=(D/C)×100 [Expression 4]

The nature of data set [3]: aspect ratio of crystals from microscopic picture (Digital microscope VHX-5000, 50x). An excerpt: The “anhydrous D-allose crystals” of the present invention have an extremely large average particle size as described above and are not in a fine needle form, having a characteristic aspect ratio of the crystal. In the present invention, the aspect ratio refers to the ratio of the long diameter to the short diameter of a crystal (short diameter: minimum length of lines passing through the center of gravity of the plane shape of a crystal, long diameter: maximum length of a crystal measured orthogonal to the short diameter). In the present specification, the aspect ratio in a numerical range from A to B (A and B: arbitrary numbers) means that all of the aspect ratios of a specified number (preferably at least 10, for example 10) of crystal particles randomly selected are within the numerical range. Example of random selection of crystal particles includes a method comprising taking a microscopic picture of crystals at 20× to 50× magnification and, from the crystals on the diagonal line drawn from the upper left to the lower right of the microscopic picture taken, selecting 10 crystals with a full body shown in order from the upper left on the diagonal line. Specifically, the aspect ratio is preferably 1.0 to 10.0, more preferably 2.0 to 8.0, still more preferably 2.0 to 7.0. Next, the aspect ratio of the anhydrous D-allose crystals of the present invention was examined. Specifically, a microscopic picture of each of the anhydrous D-allose crystals obtained in the previous Test Nos. 1 to 5, 7 to 10 and 12 were taken using “Digital microscope VHX-5000” manufactured by KEYENCE Corporation (50×magnification). Among the crystals on the diagonal line drawn from the upper left to the lower right of the microscopic picture taken, 10 crystals with a full picture shown were selected in order from the upper left and then the long diameter and the short diameter of each crystal were measured for calculation of the aspect ratio (Long diameter/Short diameter, wherein short diameter refers to minimum length of lines passing through the center of gravity of the plane shape of a crystal, and long diameter refers to maximum length of a crystal measured orthogonal to the short diameter). The minimum value of the aspect ratio was 1.1 and the maximum value was 9.6 (Table 9).

Turning to `O=C[C@H](O)[C@H](O)[C@H](O)[C@H](O)CO` [Test No. 1, D-allose], the “d [4, 3] (volume-based average particle size)” value in data set [1] (listed as 1) is reported as 472 μm. Further, the “Repose angle (degrees)” value in data set [2] (listed as 1) is 43.0 degrees. The “Aspect ratio (Long diameter/Short diameter)” value is 3.5 in data set [3] (crystal ① of 10 selected, listed as 1); 3.4 in data set [3] (crystal ② of 10 selected, listed as 1); 4.1 in data set [3] (crystal ③ of 10 selected, listed as 1); 4.4 in data set [3] (crystal ④ of 10 selected, listed as 1); 4.5 in data set [3] (crystal ⑤ of 10 selected, listed as 1); 2.2 in data set [3] (crystal ⑥ of 10 selected, listed as 1). The “Aspect ratio (Long diameter/Short diameter)” value in data set [3] (crystal ⑦ of 10 selected, listed as 1) turned out to be 4.3; in data set [3] (crystal ⑧ of 10 selected, listed as 1) it was 3.6; in data set [3] (crystal ⑨ of 10 selected, listed as 1), 3.5; in data set [3] (crystal ⑩ of 10 selected, listed as 1), 4.1.

Take `O=C[C@H](O)[C@H](O)[C@H](O)[C@H](O)CO` [Test No. 2, D-allose]: the “d [4, 3] (volume-based average particle size)” value in data set [1] (listed as 2) is 563 μm. In addition, the “Repose angle (degrees)” value in data set [2] (listed as 2) is 42.7 degrees. In addition, the “Aspect ratio (Long diameter/Short diameter)” value in data set [3] (crystal ① of 10 selected, listed as 2) was found to be 2.9; in data set [3] (crystal ② of 10 selected, listed as 2), 3.0; in data set [3] (crystal ③ of 10 selected, listed as 2), 3.5; in data set [3] (crystal ④ of 10 selected, listed as 2), 3.5; in data set [3] (crystal ⑤ of 10 selected, listed as 2), 3.0; in data set [3] (crystal ⑥ of 10 selected, listed as 2) it was 5.5. The “Aspect ratio (Long diameter/Short diameter)” value in data set [3] (crystal ⑦ of 10 selected, listed as 2) worked out at 2.6; in data set [3] (crystal ⑧ of 10 selected, listed as 2), 4.9; in data set [3] (crystal ⑨ of 10 selected, listed as 2), 3.0; in data set [3] (crystal ⑩ of 10 selected, listed as 2), 4.1.

`O=C[C@H](O)[C@H](O)[C@H](O)[C@H](O)CO` [Test No. 3, D-allose]: the “d [4, 3] (volume-based average particle size)” value in data set [1] (listed as 3) is listed as 450 μm. The “Repose angle (degrees)” value in data set [2] (listed as 3) was 42.0 degrees. Also, the “Aspect ratio (Long diameter/Short diameter)” value in data set [3] (crystal ① of 10 selected, listed as 3) turned out to be 2.5; in data set [3] (crystal ② of 10 selected, listed as 3) it was 5.4; in data set [3] (crystal ③ of 10 selected, listed as 3), 3.9; in data set [3] (crystal ④ of 10 selected, listed as 3), 6.2; in data set [3] (crystal ⑤ of 10 selected, listed as 3), 4.5; in data set [3] (crystal ⑥ of 10 selected, listed as 3), 4.3. The “Aspect ratio (Long diameter/Short diameter)” value in data set [3] (crystal ⑦ of 10 selected, listed as 3) worked out at 3.0; in data set [3] (crystal ⑧ of 10 selected, listed as 3), 4.7; in data set [3] (crystal ⑨ of 10 selected, listed as 3), 6.1; in data set [3] (crystal ⑩ of 10 selected, listed as 3), 1.5.

In the case of `O=C[C@H](O)[C@H](O)[C@H](O)[C@H](O)CO` [Test No. 4, D-allose], the “d [4, 3] (volume-based average particle size)” value in data set [1] (listed as 4) is recorded as 588 μm. The “Repose angle (degrees)” value in data set [2] (listed as 4) turned out to be 42.3 degrees. The “Aspect ratio (Long diameter/Short diameter)” value in data set [3] (crystal ① of 10 selected, listed as 4) came to 4.3; in data set [3] (crystal ② of 10 selected, listed as 4) it was 4.0; in data set [3] (crystal ③ of 10 selected, listed as 4), 4.2; in data set [3] (crystal ④ of 10 selected, listed as 4), 2.0; in data set [3] (crystal ⑤ of 10 selected, listed as 4), 6.0; in data set [3] (crystal ⑥ of 10 selected, listed as 4) it was 1.1. Also, the “Aspect ratio (Long diameter/Short diameter)” value amounted to 3.9 in data set [3] (crystal ⑦ of 10 selected, listed as 4); 8.1 in data set [3] (crystal ⑧ of 10 selected, listed as 4); 3.8 in data set [3] (crystal ⑨ of 10 selected, listed as 4); 4.1 in data set [3] (crystal ⑩ of 10 selected, listed as 4).

In the case of `O=C[C@H](O)[C@H](O)[C@H](O)[C@H](O)CO` [Test No. 5, D-allose], the “d [4, 3] (volume-based average particle size)” value in data set [1] (listed as 5) amounted to 498 μm. Also, in data set [2] (listed as 5), the “Repose angle (degrees)” value was 45.7 degrees. The “Aspect ratio (Long diameter/Short diameter)” value is on record as 1.1 in data set [3] (crystal ① of 10 selected, listed as 5); 2.7 in data set [3] (crystal ② of 10 selected, listed as 5); 3.2 in data set [3] (crystal ③ of 10 selected, listed as 5); 2.9 in data set [3] (crystal ④ of 10 selected, listed as 5); 4.7 in data set [3] (crystal ⑤ of 10 selected, listed as 5); 3.0 in data set [3] (crystal ⑥ of 10 selected, listed as 5). In addition, the “Aspect ratio (Long diameter/Short diameter)” value in data set [3] (crystal ⑦ of 10 selected, listed as 5) is 4.9; in data set [3] (crystal ⑧ of 10 selected, listed as 5), 4.1; in data set [3] (crystal ⑨ of 10 selected, listed as 5), 1.6; in data set [3] (crystal ⑩ of 10 selected, listed as 5), 3.8.
